According to patent US20240384350A1, “METHODS OF TREATING CANCER WITH KINASE INHIBITORS” (BOARD OF REGENTS, THE UNIVERSITY OF TEXAS SYSTEM, priority 2021, published 2024):

Assays:
Assay in all cases: Ba/F3 drug screening, Cell Titer Glo, IC50 Mut/WT
Format in all cases: cell-based
[1] = target: T1, EGFR L747_K754del insATSPE (Homo sapiens, UniProt P00533, DEL747-749/K754E); conditions: T790M-like-3S, 72 hours
T1 construct: expressed in transfected cells; host or cells: Ba/F3 cells, retroviral pBabe-Puro vector

EGFR A767insASV = target: T2, EGFR A767insASV (Homo sapiens, UniProt P00533, DUP767-769); conditions: Ex20, 72 hours
T2 construct: expressed in transfected cells; host or cells: Ba/F3 cells, retroviral pBabe-Puro vector

EGFR Ex19del L718Q = target: T3, EGFR Ex19del L718Q (Homo sapiens, UniProt P00533, DEL746-750/L718Q); conditions: Ba/F3 cells, EGFR Ex19del L718Q (PACC), Mut/WT
T3 construct: expressed in transfected cells; host or cells: Ba/F3

EGFR G724S T790M = target: T4, EGFR G724S T790M (Homo sapiens, UniProt P00533, G724S/T790M); conditions: T790M-like-3R, 72 hours
T4 construct: expressed in transfected cells; host or cells: Ba/F3

EGFR Ex19del/T790M/G724S = target: T5, EGFR Ex19del/T790M/G724S (Homo sapiens, UniProt P00533, DEL746-750/G724S/T790M); conditions: T790M-like-3S, 72 hours
T5 construct: expressed in transfected cells; host or cells: Ba/F3

EGFR L858R/T790M = target: T6, EGFR L858R/T790M (Homo sapiens, UniProt P00533, L858R/T790M); conditions: T790M-like-3S, 72 hours
T6 construct: expressed in transfected cells; host or cells: Ba/F3

EGFR Ex19del/C797S = target: T7, EGFR Ex19del/C797S (Homo sapiens, UniProt P00533, C797S/DEL746-750); conditions: Ba/F3 cells, EGFR Ex19del/C797S (PACC), Mut/WT
T7 construct: expressed in transfected cells; host or cells: Ba/F3

EGFR R776C = target: T8, EGFR R776C (Homo sapiens, UniProt P00533, R776C); conditions: Ba/F3 cells, EGFR R776C (PACC), Mut/WT
T8 construct: host or cells: Ba/F3

EGFR L858R/T790M/L718Q = target: T9, EGFR L858R/T790M/L718Q (Homo sapiens, UniProt P00533, L718Q/L858R/T790M); conditions: T790M-like-3R, 72 hours
T9 construct: expressed in transfected cells; host or cells: Ba/F3

EGFR L833V = target: T10, EGFR L833V (Homo sapiens, UniProt P00533, L833V); conditions: Classical-Like, 72 hours
T10 construct: expressed in transfected cells; host or cells: Ba/F3 cells, retroviral pBabe-Puro vector

EGFR G719A = target: T11, EGFR G719A (Homo sapiens, UniProt P00533, G719A); conditions: Ba/F3 cells, EGFR G719A (PACC), Mut/WT
T11 construct: expressed in transfected cells; host or cells: Ba/F3

EGFR L858R G724S = target: T12, EGFR L858R G724S (Homo sapiens, UniProt P00533, G724S/L858R); conditions: Ba/F3 cells, EGFR L858R G724S (PACC), Mut/WT
T12 construct: expressed in transfected cells; host or cells: Ba/F3 (retroviral transduction, pBabe-Puro based vectors)

EGFR E709K G719S = target: T13, EGFR E709K G719S (Homo sapiens, UniProt P00533, E709K/G719S); conditions: Ba/F3 cells, EGFR E709K G719S (PACC), Mut/WT
T13 construct: expressed in transfected cells; host or cells: Ba/F3

EGFR L718Q = target: T14, EGFR L718Q (Homo sapiens, UniProt P00533, L718Q); conditions: Ba/F3 cells, EGFR L718Q (PACC), Mut/WT
T14 construct: expressed in transfected cells; host or cells: Ba/F3

EGFR A763insLQEA = target: T15, EGFR A763insLQEA (Homo sapiens, UniProt P00533, INS763LQEA); conditions: Classical-Like, 72 hours
T15 construct: expressed in transfected cells; host or cells: Ba/F3 cells, retroviral pBabe-Puro vector

EGFR L861R = target: T16, EGFR L861R (Homo sapiens, UniProt P00533, L861R); conditions: Classical-Like, 72 hours
T16 construct: expressed in transfected cells; host or cells: Ba/F3 cells, retroviral pBabe-Puro vector (vector made by GeneScript from EGFR WT)

EGFR L718V = target: T17, EGFR L718V (Homo sapiens, UniProt P00533, L718V); conditions: Ba/F3 cells, EGFR L718V (PACC), Mut/WT
T17 construct: expressed in transfected cells; host or cells: Ba/F3

EGFR G719A L861Q = target: T18, EGFR G719A L861Q (Homo sapiens, UniProt P00533, G719A/L861Q); conditions: Ba/F3 cells, EGFR G719A L861Q (PACC), Mut/WT
T18 construct: expressed in transfected cells; host or cells: Ba/F3

EGFR A763insFQEA = target: T19, EGFR A763insFQEA (Homo sapiens, UniProt P00533, INS763FQEA); conditions: Classical-Like, 72 hours
T19 construct: expressed in transfected cells; host or cells: Ba/F3 cells, retroviral pBabe-Puro vector

EGFR L858R T790M L792H = target: T20, EGFR L858R T790M L792H (Homo sapiens, UniProt P00533, L792H/L858R/T790M); conditions: T790M-like-3S, 72 hours
T20 construct: expressed in transfected cells; host or cells: Ba/F3

EGFR L858R T790M L718V = target: T21, EGFR L858R T790M L718V (Homo sapiens, UniProt P00533, L718V/L858R/T790M); conditions: T790M-like-3R, 72 hours
T21 construct: expressed in transfected cells; host or cells: Ba/F3

EGFR S811F = target: T22, EGFR S811F (Homo sapiens, UniProt P00533, S811F); conditions: Classical-Like, 72 hours
T22 construct: expressed in transfected cells; host or cells: Ba/F3 cells, retroviral pBabe-Puro vector (vector made by GeneScript from EGFR WT)

EGFR S768I/T790M = target: T23, EGFR S768I/T790M (Homo sapiens, UniProt P00533, S768I/T790M); conditions: T790M-like-3S, 72 hours
T23 construct: expressed in transfected cells; host or cells: Ba/F3

EGFR T790M = target: T24, EGFR T790M (Homo sapiens, UniProt P00533, T790M); conditions: T790M-like-3S, 72 hours
T24 construct: expressed in transfected cells; host or cells: Ba/F3

EGFR E709_T710del insD = target: T25, EGFR E709_T710del insD (Homo sapiens, UniProt P00533, DEL709-709/T710D); conditions: Ba/F3 cells, EGFR E709_T710del insD (PACC), Mut/WT
T25 construct: expressed in transfected cells; host or cells: Ba/F3

EGFR L858R L718Q = target: T26, EGFR L858R L718Q (Homo sapiens, UniProt P00533, L718Q/L858R); conditions: Ba/F3 cells, EGFR L858R L718Q (PACC), Mut/WT
T26 construct: host or cells: Ba/F3

In the case of `C=CC(=O)Nc1cc(Nc2nccc(-n3cc(CN(C)C)c(-c4ccccc4)n3)n2)c(OC)cc1N1CCOCC1` [Lazertinib], the “ratio of IC50 for cells with mutant EGFR to IC50 for cells with wildtype EGFR (Mut/WT)” value (“ratio of IC50 for cells with mutant EGFR” for short) [1] is reported as 2.781, the “ratio of IC50 for cells with mutant EGFR” value (EGFR A767insASV) is reported as 10.93 and the “ratio of the IC50 value for cells with a PACC EGFR mutation to the IC50 value for cells with wildtype EGFR” value (“ratio of the IC50 value for cells” for short) (EGFR Ex19del L718Q) is reported as 0.08238. For the same compound, the “ratio of IC50 for cells with mutant EGFR” value (EGFR G724S T790M) was 26.17, the “ratio of IC50 for cells with mutant EGFR” value (EGFR Ex19del/T790M/G724S) was 0.02984 and the “ratio of IC50 for cells with mutant EGFR” value (EGFR L858R/T790M) was 0.0336. The “ratio of the IC50 value for cells” value (EGFR Ex19del/C797S) was 11.82, the “ratio of the IC50 value for cells” value (EGFR R776C) was 1.504 and the “ratio of IC50 for cells with mutant EGFR” value (EGFR L858R/T790M/L718Q) was 11.87. For the same compound, the “ratio of IC50 for cells with mutant EGFR” value (EGFR L833V) was 0.006132, the “ratio of the IC50 value for cells” value (EGFR G719A) was 0.362 and the “ratio of the IC50 value for cells” value (EGFR L858R G724S) was 0.0004647. The “ratio of the IC50 value for cells” value (EGFR E709K G719S) was 0.2652, the “ratio of the IC50 value for cells” value (EGFR L718Q) was 5.442 and the “ratio of IC50 for cells with mutant EGFR” value (EGFR A763insLQEA) was 0.1304. For the same compound, the “ratio of IC50 for cells with mutant EGFR” value (EGFR L861R) was 0.05091, the “ratio of the IC50 value for cells” value (EGFR L718V) was 0.6184 and the “ratio of the IC50 value for cells” value (EGFR G719A L861Q) was 1.406. For the same compound, the “ratio of IC50 for cells with mutant EGFR” value (EGFR A763insFQEA) was 0.03797, the “ratio of IC50 for cells with mutant EGFR” value (EGFR L858R T790M L792H) was 0.0005009 and the “ratio of IC50 for cells with mutant EGFR” value (EGFR L858R T790M L718V) was 0.5404. The “ratio of IC50 for cells with mutant EGFR” value (EGFR S811F) was 0.01158, the “ratio of IC50 for cells with mutant EGFR” value (EGFR S768I/T790M) was 0.5236 and the “ratio of IC50 for cells with mutant EGFR” value (EGFR T790M) was 0.2517. The “ratio of the IC50 value for cells” value (EGFR E709_T710del insD) was 0.5663 and the “ratio of the IC50 value for cells” value (EGFR L858R L718Q) was 3.064.
